Assay [1] has as its system CCRF-CEM. Kind of assay: Cytotoxicity against human vinblastine-resistant CCRF-CEM cells after 72 hrs by XTT assay. The class given is functional, cell-based. In general terms: Tetrazolium assays rely on reduction of a dye to a coloured formazan, in cell work by metabolically active cells.
The test system of assay [2] is CCRF-CEM. As to the kind of experiment: Cross-resistance, IC50 for human vinblastine-resistant CCRF-CEM cells to IC50 for human CCRF-CEM cells. It counts as functional.
The subject of assay [3] is CCRF-CEM. Kind of assay: Cross-resistance, IC50 for human taxol-resistant CCRF-CEM cells to IC50 for human CCRF-CEM cells. The class given is functional.
Assay [4] concerns CCRF-CEM. As to the kind of experiment: Cytotoxicity against human CCRF-CEM cells after 72 hrs by XTT assay. The class given is functional, cell-based.
A further assay relates to HCT-116. As to the kind of experiment: Cytotoxicity against human HCT116 cells after 72 hrs by SRB assay. It counts as functional, cell-based. To be noted: HCT-116, 72 h. Background: The SRB assay estimates cell density from bound dye.
The subject of assay [5] is CCRF-CEM. As to the kind of experiment: Cytotoxicity against human taxol-resistant CCRF-CEM cells after 72 hrs by XTT assay. The class given is functional, cell-based.
Another assay has as its system MX1. Kind of assay: Cytotoxicity against human MX1 cells after 72 hrs by SRB assay. The class given is functional, cell-based. The settings on record: MX1, 72 h.

This is an account of results in ChEMBL document CHEMBL1152415, “Potent antitumor bifunctional DNA alkylating agents, synthesis and biological activities of 3a-aza-cyclopenta[a]indenes” (Bioorg Med Chem, 2009).

By IC50 is commonly meant the concentration that inhibits the measured activity by half.

Take `OCc1c(CO)c(-c2ccc(F)c(F)c2)n2c1Cc1ccccc1-2`: the IC50 came out at 7500 nM in the assay with CCRF-CEM [1]; 5200 nM with CCRF-CEM [4] (read-out: IC50); 11000 nM in the assay with HCT-116; 7500 nM with CCRF-CEM [5]; 7000 nM with MX1. For the same compound, the “Ratio IC50” value with CCRF-CEM [2] and in the assay on CCRF-CEM [3] was 1.4 throughout.

With `CNC(=O)OCc1c(COC(=O)NC)c(-c2ccc(OC)c(OC)c2)n2c1Cc1ccccc1-2`, the half-inhibitory concentration (IC50) was 500 nM with CCRF-CEM [1]; 350 nM in the assay on CCRF-CEM [4] (read-out: IC50); 660 nM in the assay on HCT-116; 390 nM with CCRF-CEM [5]; 1800 nM in the assay with MX1. The “Ratio IC50” value with CCRF-CEM [2] was determined as 1.4; in the assay on CCRF-CEM [3], 1.1.

As to `CNC(=O)OCc1c(COC(=O)NC)c(-c2ccc(F)c(F)c2)n2c1Cc1ccccc1-2`, the IC50 in the assay on CCRF-CEM [1] was 650 nM; with CCRF-CEM [4] (read-out: IC50) it was 640 nM; in the assay on HCT-116, 900 nM; in the assay with CCRF-CEM [5], 610 nM; with MX1, 8200 nM. Moreover, the results for the “Ratio IC50” value in the assay with CCRF-CEM [2] and with CCRF-CEM [3] were 1 and 0.97, respectively.

With `CNC(=O)OCc1c(COC(=O)NC)c(-c2c(OC)cccc2OC)n2c1Cc1ccccc1-2`, the IC50 came to 620 nM with CCRF-CEM [1]; 640 nM with CCRF-CEM [4] (read-out: IC50); 1100 nM in the assay with HCT-116; 720 nM with CCRF-CEM [5]; 5300 nM in the assay on MX1. The “Ratio IC50” value with CCRF-CEM [2] stood at 0.97; in the assay with CCRF-CEM [3] it was 1.1.

Consider `CC(=O)O[C@H]1C(=O)[C@@]2(C)[C@H]([C@H](OC(=O)c3ccccc3)[C@]3(O)C[C@H](OC(=O)[C@H](O)[C@@H](NC(=O)c4ccccc4)c4ccccc4)C(C)=C1C3(C)C)[C@]1(OC(C)=O)CO[C@@H]1C[C@@H]2O` [PACLITAXEL], for which the IC50 in the assay with CCRF-CEM [1] came to 400 nM; in the assay with CCRF-CEM [4], 1.2 nM; with CCRF-CEM [5], 1200 nM. Also, the “Ratio IC50” value is given as 333 with CCRF-CEM [2] and 1000 in the assay with CCRF-CEM [3].

For `CC[C@]1(O)C[C@@H]2CN(CCc3c([nH]c4ccccc34)[C@@](C(=O)OC)(c3cc4c(cc3OC)N(C)[C@H]3[C@@](O)(C(=O)OC)[C@H](OC(C)=O)[C@]5(CC)C=CCN6CC[C@]43[C@@H]65)C2)C1` [VINBLASTINE], the “Ratio IC50” value is on record as 107 in the assay with CCRF-CEM [2] and 685 with CCRF-CEM [3].

For the compound `CNC(=O)OCc1c(COC(=O)NC)c(-c2ccccc2)n2c1Cc1ccccc1-2`, the IC50 is 550 nM in the assay on CCRF-CEM [1]; 360 nM in the assay on CCRF-CEM [4] (read-out: IC50); 750 nM in the assay with HCT-116; 1700 nM in the assay with CCRF-CEM [5]; 5900 nM in the assay on MX1. Moreover, the “Ratio IC50” value in the assay with CCRF-CEM [2] is listed as 1.6; with CCRF-CEM [3] it was 4.7.

In the case of `CNC(=O)OCc1c(COC(=O)NC)c(-c2cc(OC)c(OC)c(OC)c2)n2c1Cc1ccccc1-2`, the half-maximal inhibitory concentration (IC50) in the assay on CCRF-CEM [1] came to 14000 nM; with CCRF-CEM [4] (read-out: IC50), 12000 nM; in the assay with HCT-116 it was 1900 nM; in the assay on CCRF-CEM [5], 8400 nM; with MX1 it was 7200 nM. Besides, the “Ratio IC50” value in the assay on CCRF-CEM [2] was determined as 1.2; with CCRF-CEM [3], 0.73.

With `OCc1c(CO)c(-c2ccccc2)n2c1Cc1ccccc1-2`, the IC50 in the assay with CCRF-CEM [1] worked out at 250 nM; in the assay on CCRF-CEM [4] (read-out: IC50), 250 nM; in the assay on HCT-116, 1900 nM; with CCRF-CEM [5] it was 220 nM; with MX1, 1300 nM. Moreover, the results for the “Ratio IC50” value with CCRF-CEM [2] and with CCRF-CEM [3] were 1 and 0.9, respectively.

As for `COc1cccc(OC)c1-c1c(CO)c(CO)c2n1-c1ccccc1C2`, the IC50 in the assay with CCRF-CEM [1] was 7500 nM; in the assay with CCRF-CEM [4] (read-out: IC50), 8100 nM; in the assay with HCT-116 it was 43000 nM; in the assay with CCRF-CEM [5], 6200 nM; in the assay on MX1, 26000 nM. For the same compound, the results for the “Ratio IC50” value with CCRF-CEM [2] and in the assay on CCRF-CEM [3] were 0.92 and 0.76, respectively.

Consider `COc1cc(-c2c(CO)c(CO)c3n2-c2ccccc2C3)cc(OC)c1OC`, for which the concentration for half-maximal inhibition (IC50) with CCRF-CEM [1] turned out to be 990 nM; with CCRF-CEM [4] (read-out: IC50), 2200 nM; with HCT-116 it was 29000 nM; with CCRF-CEM [5], 1100 nM; in the assay with MX1 it was 17000 nM. Besides, the “Ratio IC50” value in the assay with CCRF-CEM [2] was 0.45; in the assay with CCRF-CEM [3], 0.52.
